Experimental data taken from patent US11787800B2, “BRD9 degraders and uses thereof” (Foghorn Therapeutics Inc., priority 2020, dated 2023).

Experiments:
Format in all cases: cell-based
SYO1 cells [1] = assay: Apoptosis assay, Annexin V-FITC Apoptosis Detection Kit; settings: 200 nM or 1 μM, 8 days, compared to DMSO controls
Experimental: (§1) Compounds were refreshed every 5 days. Cell cycle analysis was performed using the Click-iT™ Plus EdU Flow Cytometry Assay (Invitrogen). The apoptosis assay was performed using the Annexin V-FITC Apoptosis Detection Kit (Sigma A9210). Assays were performed according to the manufacturer's protocol.

[2] = system: synovial sarcoma cell lines (SYO1, Yamato, HS-SY-II, and ASKA); assay: Growth of synovial sarcoma cell lines (IncuCyte confluency, crystal violet staining, colony imaging), Example 3; settings: FIGS. 5, 6, 7, 1 μM in crystal violet assay
Experimental: (§2) Growth medium and compounds were refreshed every 3-4 days.
(§3) The number of cells was optimized for each cell line. Growth medium and compounds were refreshed every 3-5 days. SYO1, Yamato, A549, 293T and HS-SY-II cells were fixed and stained at day 11. ASKA cells were fixed and stained at day 23. Staining was done by incubation with crystal violet solution (0.5 g Crystal Violet, 27 ml 37% Formaldehyde, 100 mL 10×PBS, 10 mL Methanol, 863 dH20 to 1 L) for 30 min followed by 3× washes with water and drying the plates for at least 24 h at room temperature. Subsequently plates were scanned on an Odyssey CLx Imaging system (FIG. 6).
(§4) Cells were seeded into 96-well ultra low cluster plate (Costar, #7007) in 200 μL complete media and treated at day 2 with DMSO, Staurosporin, or BRD9 degarder, Compound 1, at indicated doses (FIG. 7). Media and compounds were changed every 5 d and cell colonies were imaged at day 14.

[3] = system: synovial sarcoma cell lines (SYO1, HS-SY-II, and ASKA); assay: Crystal violet growth assay, day 14, synovial sarcoma cell lines, Example 4; settings: for growth of synovial sarcoma cell lines: SYO1, HS-SY-II, ASKA, daily treatment, day 14, crystal violet, FIGS. 8 and 9
Experimental: (§5) Procedure: Cells were seeded into 6-well or 12-well plates and were treated daily with a BRD9 degrader (Compound 1), a bromo-domain BRD9 binder (Compound 2), E3 ligase binder (lenalidomide), DMSO, or staurosporin (positive control for cell killing), at indicated concentrations. The number of cells was optimized for each cell line. Growth media was refreshed every 5 days. By day 14, medium was removed, cells were washed with PBS, and stained using 500 μL of 0.005% (w/v) crystal violet solution in 25% (v/v) methanol for at least 1 hour at room temperature. Subsequently plates were scanned on an Odyssey CLx Imaging system.

SYO1 cells [4] = assay: Cell cycle analysis, Click-iT Plus EdU Flow Cytometry Assay; settings: 200 nM or 1 μM, 8 or 13 days, compared to DMSO and lenalidomide
Experimental: as §1

[5] = system: non-synovial control cancer cell lines (RD, HCT116, and Calu6); assay: Crystal violet growth assay, day 14, non-synovial control cancer cell lines, Example 4; settings: daily treatment, day 14, crystal violet, FIGS. 8 and 9
Experimental: as §5

[6] = system: non-synovial control cancer cell lines (293T, A549, G401); assay: Growth of non-synovial control cancer cell lines, Example 3; settings: FIGS. 5, 6, 7
Experimental: as §2, §3, §4

Compound	numbers of early- and late-apoptotic cells (SYO1 cells [1])	growth of synovial sarcoma cell lines [2]	growth of synovial sarcoma cell lines [3]	growth inhibition compared among the test agents ([3]; all synovial cell lines)	numbers of cells in the S-phase of the cell cycle (SYO1 cells [4])	growth of non-synovial control cancer cell lines [5]	growth of non-synovial control cancer cell lines [6]
COc1cc(-c2cn(C)c(=O)c3cnccc23)cc(OC)c1CN(C)CC(=O)NCCOCCOCCNc1cccc2c1C(=O)N(C1CCC(=O)NC1=O)C2=O (centres unmarked) [Compound A]	increased numbers of early- and late-apoptotic cells	inhibition of the growth of the cells	inhibition of the growth of the cells	most significant growth inhibition	reduced numbers of cells in the S-phase	did not result in inhibition of the growth	does not result in inhibition of the growth
COc1cc(-c2cn(C)c(=O)c3cnccc23)cc(OC)c1CN(C)C [Compound B]		inhibition of the growth of the cells	inhibition of the growth of the cells			did not result in inhibition of the growth	does not result in inhibition of the growth
